From ChEMBL document CHEMBL2062364, “Discovery and optimization of new benzimidazole- and benzoxazole-pyrimidone selective PI3Kβ inhibitors for the treatment of phosphatase and TENsin homologue (PTEN)-deficient cancers” (J Med Chem, 2012)
Converted amounts (≈) assume the structure as drawn.

Experiments:
[1] = target: T1, Phosphatidylinositol 4,5-bisphosphate 3-kinase catalytic subunit alpha isoform (Homo sapiens, UniProt P42336); experiment: Inhibition of N-terminus poly-His tagged human PI3Kalpha expressed in baculovirus infected insect sf9 cells coexpressing p85alpha using PI(4,5)P2 as substrate preincubated with compound for 15 mins measured after 10 mins by HTRF assay
[2] = Inhibition of mTORC2-mediated Akt phosphorylation at Ser473 residue in PTEN-deficient human PC3 cells after 2 hrs by Western blot analysis; format: cell-based; details: PC-3, 2 h
[3] = target: T1, Phosphatidylinositol 4,5-bisphosphate 3-kinase catalytic subunit alpha isoform; experiment: Inhibition of human PI3Kalpha-mediated Akt phosphorylation at Ser473 residue expressed in human H460 cells after 0.5 to 2 hrs by Western blot analysis; format: cell-based
[4] = target: T2, Phosphatidylinositol 4,5-bisphosphate 3-kinase catalytic subunit gamma isoform (Homo sapiens, UniProt P48736); experiment: Inhibition of N-terminus poly-His tagged human PI3Kgamma expressed in baculovirus infected insect sf9 cells using PI(4,5)P2 as substrate preincubated with compound for 15 mins measured after 10 mins by HTRF assay
[5] = target: T3, Phosphatidylinositol 4,5-bisphosphate 3-kinase catalytic subunit delta isoform (Homo sapiens, UniProt O00329); experiment: Inhibition of human PI3Kdelta-mediated Akt phosphorylation at Ser473 residue expressed in mouse MEF-3T3 cells after 0.5 to 2 hrs by Western blot analysis; format: cell-based
T3 sequence (O00329 whole entry): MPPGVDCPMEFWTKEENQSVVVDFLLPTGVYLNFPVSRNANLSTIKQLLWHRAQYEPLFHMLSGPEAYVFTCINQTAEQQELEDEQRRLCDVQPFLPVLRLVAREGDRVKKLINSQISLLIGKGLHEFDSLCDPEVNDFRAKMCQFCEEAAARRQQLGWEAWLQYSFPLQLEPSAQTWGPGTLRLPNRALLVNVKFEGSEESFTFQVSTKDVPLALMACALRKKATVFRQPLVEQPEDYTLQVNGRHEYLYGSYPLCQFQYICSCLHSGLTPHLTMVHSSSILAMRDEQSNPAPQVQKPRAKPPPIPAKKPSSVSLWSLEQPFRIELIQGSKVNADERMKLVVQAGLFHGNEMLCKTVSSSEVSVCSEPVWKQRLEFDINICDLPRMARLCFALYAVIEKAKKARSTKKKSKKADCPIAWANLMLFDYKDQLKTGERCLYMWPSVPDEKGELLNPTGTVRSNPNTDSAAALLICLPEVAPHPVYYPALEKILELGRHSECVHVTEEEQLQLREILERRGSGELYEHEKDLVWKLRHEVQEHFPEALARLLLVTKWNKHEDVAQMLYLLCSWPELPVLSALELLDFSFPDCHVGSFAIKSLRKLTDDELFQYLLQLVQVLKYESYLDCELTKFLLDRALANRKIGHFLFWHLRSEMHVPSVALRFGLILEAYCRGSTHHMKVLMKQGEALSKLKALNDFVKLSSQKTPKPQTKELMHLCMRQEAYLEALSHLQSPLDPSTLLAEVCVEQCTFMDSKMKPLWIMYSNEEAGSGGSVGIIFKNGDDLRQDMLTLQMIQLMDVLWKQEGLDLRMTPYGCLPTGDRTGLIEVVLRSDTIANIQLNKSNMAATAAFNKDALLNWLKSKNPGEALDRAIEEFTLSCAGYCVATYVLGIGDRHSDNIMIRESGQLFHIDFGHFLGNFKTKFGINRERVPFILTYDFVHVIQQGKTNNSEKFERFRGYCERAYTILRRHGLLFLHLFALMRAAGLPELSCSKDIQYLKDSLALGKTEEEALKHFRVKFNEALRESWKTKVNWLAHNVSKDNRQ

[6] = target: T2, Phosphatidylinositol 4,5-bisphosphate 3-kinase catalytic subunit gamma isoform; experiment: Inhibition of human PI3Kgamma-mediated Akt phosphorylation at Ser473 residue expressed in mouse RAW264.7 cells after 0.5 to 2 hrs by Western blot analysis; format: cell-based
[7] = target: T3, Phosphatidylinositol 4,5-bisphosphate 3-kinase catalytic subunit delta isoform; experiment: Inhibition of poly-His tagged human PI3Kdelta expressed in baculovirus infected insect sf9 cells coexpressing p85alpha using PI(4,5)P2 as substrate preincubated with compound for 15 mins measured after 10 mins by HTRF assay
[8] = target: T4, Phosphatidylinositol 4,5-bisphosphate 3-kinase catalytic subunit beta isoform (Homo sapiens, UniProt P42338); experiment: Inhibition of human PI3Kbeta-mediated Akt phosphorylation at Ser473 residue expressed in PTEN-deficient human PC3 cells by chemiluminescence assay; format: cell-based, PC-3
[9] = target: T4, Phosphatidylinositol 4,5-bisphosphate 3-kinase catalytic subunit beta isoform; experiment: Inhibition of N-terminus poly-His tagged human PI3Kbeta expressed in baculovirus infected insect […] cells coexpressing p85alpha using PI(4,5)P2 as substrate preincubated with compound for 15 mins measured after 10 mins by HTRF assay
[10] = target: T4, Phosphatidylinositol 4,5-bisphosphate 3-kinase catalytic subunit beta isoform; experiment: Inhibition of human PI3Kbeta-mediated Akt phosphorylation at T308 residue expressed in PTEN-deficient human PC3 cells after 2 hrs by Western blot analysis; format: cell-based, PC-3
[11] = Drug metabolism in mouse liver microsomes; format: ADME, Microsome; details: read-out: Drug metabolism
Cytochrome P450 3A4 = Cytochrome P450 3A4 (Homo sapiens, UniProt P08684); experiment: Inhibition of human recombinant CPY3A4
[12] = Apparent permeability of the compound across human Caco2 cells; format: ADME, cell-based; details: Caco-2
[13] = Thermodynamic solubility of the compound in phosphate buffer at pH 7.4 after 16 hrs by HPLC analysis; format: physicochemical; details: read-out: Therm_solubility
[14] = target: Serine/threonine-protein kinase mTOR (Homo sapiens, UniProt P42345); experiment: Inhibition of mTOR
[15] = Drug metabolism in human liver microsomes; format: ADME, Microsome; details: read-out: Drug metabolism

T2 sequence (P48736 whole entry, canonical isoform): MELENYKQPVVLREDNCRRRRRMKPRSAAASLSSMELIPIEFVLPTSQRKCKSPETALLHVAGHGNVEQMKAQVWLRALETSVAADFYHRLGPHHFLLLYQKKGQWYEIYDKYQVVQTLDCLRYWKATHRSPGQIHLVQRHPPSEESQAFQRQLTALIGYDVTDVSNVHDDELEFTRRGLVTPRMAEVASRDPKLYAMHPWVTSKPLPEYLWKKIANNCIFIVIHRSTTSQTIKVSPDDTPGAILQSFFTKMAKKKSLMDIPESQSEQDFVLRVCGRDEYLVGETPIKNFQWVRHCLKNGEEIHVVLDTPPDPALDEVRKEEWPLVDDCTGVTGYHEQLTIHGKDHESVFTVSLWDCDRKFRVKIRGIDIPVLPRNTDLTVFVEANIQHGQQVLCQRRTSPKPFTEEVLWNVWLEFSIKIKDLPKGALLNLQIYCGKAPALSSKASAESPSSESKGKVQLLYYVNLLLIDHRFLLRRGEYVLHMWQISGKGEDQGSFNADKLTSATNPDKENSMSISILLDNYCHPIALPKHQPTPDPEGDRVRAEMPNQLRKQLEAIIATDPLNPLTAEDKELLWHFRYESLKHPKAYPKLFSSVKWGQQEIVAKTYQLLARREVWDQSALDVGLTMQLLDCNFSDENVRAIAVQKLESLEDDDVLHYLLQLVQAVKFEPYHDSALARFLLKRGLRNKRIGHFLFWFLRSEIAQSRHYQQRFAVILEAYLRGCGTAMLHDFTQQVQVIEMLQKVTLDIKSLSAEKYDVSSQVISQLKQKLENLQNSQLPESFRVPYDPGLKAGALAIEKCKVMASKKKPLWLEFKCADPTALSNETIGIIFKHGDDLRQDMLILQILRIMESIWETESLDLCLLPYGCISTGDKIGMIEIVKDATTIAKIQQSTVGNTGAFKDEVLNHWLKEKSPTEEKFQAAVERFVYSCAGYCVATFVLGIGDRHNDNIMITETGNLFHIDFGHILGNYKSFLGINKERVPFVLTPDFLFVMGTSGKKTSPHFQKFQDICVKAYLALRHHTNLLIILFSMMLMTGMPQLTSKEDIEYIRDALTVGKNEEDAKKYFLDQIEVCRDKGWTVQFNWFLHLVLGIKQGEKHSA
T4 sequence (P42338 whole entry, canonical isoform): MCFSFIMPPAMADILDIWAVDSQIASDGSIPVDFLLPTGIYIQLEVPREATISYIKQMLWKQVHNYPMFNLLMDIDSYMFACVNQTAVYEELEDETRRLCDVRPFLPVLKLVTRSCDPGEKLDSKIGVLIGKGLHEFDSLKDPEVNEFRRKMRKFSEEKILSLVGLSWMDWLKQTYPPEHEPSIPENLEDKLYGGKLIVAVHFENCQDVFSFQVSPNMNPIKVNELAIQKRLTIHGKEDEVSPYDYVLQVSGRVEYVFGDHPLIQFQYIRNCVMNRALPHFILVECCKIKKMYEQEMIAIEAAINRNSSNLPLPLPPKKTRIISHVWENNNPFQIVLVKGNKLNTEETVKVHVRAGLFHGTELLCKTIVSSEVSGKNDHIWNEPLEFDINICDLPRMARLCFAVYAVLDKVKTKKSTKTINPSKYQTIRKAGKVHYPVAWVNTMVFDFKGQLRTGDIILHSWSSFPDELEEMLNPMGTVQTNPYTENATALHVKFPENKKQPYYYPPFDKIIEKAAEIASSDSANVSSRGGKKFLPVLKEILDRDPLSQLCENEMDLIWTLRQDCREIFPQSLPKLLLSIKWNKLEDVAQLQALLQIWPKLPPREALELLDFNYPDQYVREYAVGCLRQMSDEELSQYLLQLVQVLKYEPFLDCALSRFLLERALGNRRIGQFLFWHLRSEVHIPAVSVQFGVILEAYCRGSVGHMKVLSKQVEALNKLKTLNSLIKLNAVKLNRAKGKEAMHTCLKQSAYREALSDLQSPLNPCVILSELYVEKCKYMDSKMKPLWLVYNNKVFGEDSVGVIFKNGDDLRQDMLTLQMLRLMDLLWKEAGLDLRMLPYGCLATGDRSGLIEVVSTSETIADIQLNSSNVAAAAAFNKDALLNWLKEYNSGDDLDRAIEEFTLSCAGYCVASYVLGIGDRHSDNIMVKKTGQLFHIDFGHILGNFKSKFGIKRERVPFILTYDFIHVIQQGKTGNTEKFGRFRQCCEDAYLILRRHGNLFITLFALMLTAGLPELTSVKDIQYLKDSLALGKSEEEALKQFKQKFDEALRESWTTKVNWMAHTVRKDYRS
Cytochrome P450 3A4, sequence (P08684 whole entry): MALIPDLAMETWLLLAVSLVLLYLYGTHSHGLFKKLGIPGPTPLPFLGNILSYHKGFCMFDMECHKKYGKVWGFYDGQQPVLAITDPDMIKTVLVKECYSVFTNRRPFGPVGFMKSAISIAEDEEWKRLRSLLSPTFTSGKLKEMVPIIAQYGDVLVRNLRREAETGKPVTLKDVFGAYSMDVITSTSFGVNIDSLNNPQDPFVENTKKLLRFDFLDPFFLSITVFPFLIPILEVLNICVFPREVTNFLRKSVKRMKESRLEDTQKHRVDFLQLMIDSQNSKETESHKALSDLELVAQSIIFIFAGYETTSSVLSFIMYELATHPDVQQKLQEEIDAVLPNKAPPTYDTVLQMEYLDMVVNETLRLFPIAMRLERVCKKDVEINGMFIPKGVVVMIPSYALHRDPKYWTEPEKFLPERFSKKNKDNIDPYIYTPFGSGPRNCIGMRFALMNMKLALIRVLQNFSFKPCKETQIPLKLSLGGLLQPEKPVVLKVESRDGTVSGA
T1 sequence (P42336 whole entry, canonical isoform): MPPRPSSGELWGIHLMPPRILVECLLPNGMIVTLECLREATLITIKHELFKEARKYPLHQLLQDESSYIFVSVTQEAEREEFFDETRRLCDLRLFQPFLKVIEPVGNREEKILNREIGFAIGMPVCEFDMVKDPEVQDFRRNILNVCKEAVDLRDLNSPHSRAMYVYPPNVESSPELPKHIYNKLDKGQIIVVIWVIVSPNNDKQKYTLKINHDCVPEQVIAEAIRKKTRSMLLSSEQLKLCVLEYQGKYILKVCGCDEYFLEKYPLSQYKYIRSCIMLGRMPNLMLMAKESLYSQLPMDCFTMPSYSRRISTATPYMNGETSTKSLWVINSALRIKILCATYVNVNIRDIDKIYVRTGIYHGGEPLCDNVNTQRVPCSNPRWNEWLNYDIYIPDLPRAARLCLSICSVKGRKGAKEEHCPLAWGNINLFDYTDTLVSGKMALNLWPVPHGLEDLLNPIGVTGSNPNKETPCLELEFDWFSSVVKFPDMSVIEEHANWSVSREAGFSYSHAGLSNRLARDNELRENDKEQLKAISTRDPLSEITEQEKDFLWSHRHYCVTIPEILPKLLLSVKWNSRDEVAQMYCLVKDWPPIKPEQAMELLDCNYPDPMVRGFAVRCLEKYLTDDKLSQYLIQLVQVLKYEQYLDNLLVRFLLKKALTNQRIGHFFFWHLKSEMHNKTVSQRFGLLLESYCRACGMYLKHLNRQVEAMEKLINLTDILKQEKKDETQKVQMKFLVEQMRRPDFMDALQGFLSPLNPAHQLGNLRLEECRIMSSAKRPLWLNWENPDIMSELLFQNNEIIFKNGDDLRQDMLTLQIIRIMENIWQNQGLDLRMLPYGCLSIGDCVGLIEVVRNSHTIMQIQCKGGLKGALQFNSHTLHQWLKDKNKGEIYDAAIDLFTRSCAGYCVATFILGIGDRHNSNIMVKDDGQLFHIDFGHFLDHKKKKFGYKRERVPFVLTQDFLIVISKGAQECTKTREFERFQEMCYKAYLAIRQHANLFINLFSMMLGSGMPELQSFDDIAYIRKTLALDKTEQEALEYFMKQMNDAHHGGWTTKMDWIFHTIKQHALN

Cc1cc(C(C)Nc2ccccc2)c2nc(N3CCOCC3)cc(=O)n2c1 (stereo not drawn)
IC50 [1]: > 10000 nM | IC50 [2]: 10 nM | IC50 [3]: > 1000 nM | IC50 [4]: > 10000 nM | IC50 [5]: 252 nM | IC50 [6]: > 1000 nM | IC50 [7]: 851 nM

Cc1cc(C(C)Nc2ccccc2)c2oc(N3CCOCC3)cc(=O)c2c1 (stereo not drawn)
IC50 [2]: 3 nM | IC50 [8]: 3 nM | IC50 [9]: 28 nM | IC50 [10]: 3 nM

O=c1cc(N2CCOCC2)nc(Cc2nc3ccc(F)cc3[nH]2)[nH]1
IC50 [1]: > 10000 nM | IC50 [2]: 41 nM | metabolised [11]: 0% | IC50 [8]: 41 nM | IC50 [4]: > 10000 nM | IC50 (Cytochrome P450 3A4): > 40000 nM | Papp [12]: 0.2 ×10⁻⁶ cm/s | solubility thermodynamic at 16 h [13]: 76 µM (≈ 25 µg/mL) | IC50 [9]: 30 nM | IC50 [14]: > 10000 nM | metabolised [15]: 69% | IC50 [7]: 219 nM | IC50 [10]: 100 nM

Cn1c(Cc2nc(N3CCOCC3)cc(=O)[nH]2)nc2cc(F)ccc21
IC50 [1]: > 10000 nM | metabolised [11]: 20% | IC50 [8]: 16 nM | IC50 [4]: > 10000 nM | IC50 (Cytochrome P450 3A4): > 40000 nM | Papp [12]: 3.1 ×10⁻⁶ cm/s | solubility thermodynamic at 16 h [13]: 3 µM (≈ 1.03 µg/mL) | IC50 [9]: 82 nM | IC50 [14]: > 10000 nM | metabolised [15]: 39% | IC50 [7]: 855 nM

CCn1c(Cc2nc(N3CCOCC3)cc(=O)[nH]2)nc2ccccc21
IC50 [1]: 1000 nM | metabolised [11]: 48% | IC50 [8]: 26 nM | IC50 [4]: 8270 nM | IC50 (Cytochrome P450 3A4): > 40000 nM | Papp [12]: 0.5 ×10⁻⁶ cm/s | solubility thermodynamic at 16 h [13]: 221 µM (≈ 75 µg/mL) | IC50 [9]: 72 nM | IC50 [14]: > 10000 nM | metabolised [15]: 60% | IC50 [7]: 225 nM

O=c1cc(N2CCOCC2)nc(Cc2nc3ccccc3n2-c2ccccc2)[nH]1
IC50 [1]: 6790 nM | metabolised [11]: 100% | IC50 [8]: 8 nM | IC50 [4]: > 10000 nM | IC50 (Cytochrome P450 3A4): > 40000 nM | Papp [12]: 4.4 ×10⁻⁶ cm/s | solubility thermodynamic at 16 h [13]: 397 µM (≈ 154 µg/mL) | IC50 [9]: 75 nM | IC50 [14]: > 10000 nM | metabolised [15]: 98% | IC50 [7]: 36 nM

O=c1cc(N2CCOCC2)nc(Cc2nc3c(-c4ccccc4)cccc3[nH]2)[nH]1
IC50 [1]: 5500 nM | metabolised [11]: 51% | IC50 [8]: 65 nM | IC50 [4]: > 10000 nM | IC50 (Cytochrome P450 3A4): > 40000 nM | Papp [12]: 0.1 ×10⁻⁶ cm/s | solubility thermodynamic at 16 h [13]: 3 µM (≈ 1.16 µg/mL) | IC50 [9]: 10 nM | IC50 [14]: > 10000 nM | metabolised [15]: 78% | IC50 [7]: 180 nM

Cn1c(Cc2nc(N3CCOCC3)cc(=O)[nH]2)nc2cccc(-c3ccccc3)c21
IC50 [1]: 4580 nM | metabolised [11]: 55% | IC50 [8]: 17 nM | IC50 [4]: > 10000 nM | IC50 (Cytochrome P450 3A4): > 40000 nM | Papp [12]: 3.9 ×10⁻⁶ cm/s | solubility thermodynamic at 16 h [13]: 2 µM (≈ 0.803 µg/mL) | IC50 [9]: 60 nM | IC50 [14]: > 10000 nM | metabolised [15]: 57% | IC50 [7]: 181 nM

O=c1cc(N2CCOCC2)nc(Cc2nc3cc(F)ccc3o2)[nH]1
IC50 [1]: > 10000 nM | metabolised [11]: 23% | IC50 [8]: 26 nM | IC50 [4]: > 10000 nM | IC50 (Cytochrome P450 3A4): > 40000 nM | Papp [12]: 16 ×10⁻⁶ cm/s | solubility thermodynamic at 16 h [13]: 3 µM (≈ 0.991 µg/mL) | IC50 [9]: 46 nM | IC50 [14]: > 10000 nM | metabolised [15]: 47% | IC50 [7]: 854 nM

O=c1cc(N2CCOCC2)nc(Cc2nc3cccc(-c4ccccc4)c3o2)[nH]1
IC50 [1]: > 10000 nM | metabolised [11]: 61% | IC50 [8]: 177 nM | IC50 [4]: > 10000 nM | IC50 (Cytochrome P450 3A4): > 40000 nM | Papp [12]: 32.3 ×10⁻⁶ cm/s | solubility thermodynamic at 16 h [13]: 3 µM (≈ 1.17 µg/mL) | IC50 [9]: 90 nM | IC50 [14]: > 10000 nM | metabolised [15]: 57% | IC50 [7]: 1180 nM

O=c1cc(N2CCOCC2)nc(Cc2nc3c(-c4cccs4)cccc3o2)[nH]1
IC50 [1]: 4360 nM | metabolised [11]: 79% | IC50 [8]: 22 nM | IC50 [4]: 5740 nM | IC50 (Cytochrome P450 3A4): 19000 nM | Papp [12]: 25.5 ×10⁻⁶ cm/s | solubility thermodynamic at 16 h [13]: 3 µM (≈ 1.18 µg/mL) | IC50 [9]: 46 nM | IC50 [14]: > 10000 nM | metabolised [15]: 60% | IC50 [7]: 398 nM

O=c1cc(N2CCOCC2)nc(Cc2nc3c(-c4ccccc4)c(F)ccc3o2)[nH]1
IC50 [1]: > 10000 nM | metabolised [11]: 17% | IC50 [8]: 6 nM | IC50 [4]: > 10000 nM | IC50 (Cytochrome P450 3A4): > 40000 nM | Papp [12]: 37.1 ×10⁻⁶ cm/s | solubility thermodynamic at 16 h [13]: 15 µM (≈ 6.1 µg/mL) | IC50 [9]: 8 nM | IC50 [14]: > 10000 nM | metabolised [15]: 18% | IC50 [7]: 151 nM
